Experimental data taken from ChEMBL document CHEMBL1157596, “Colony stimulating factor-1 receptor as a target for small molecule inhibitors” (Bioorg Med Chem, 2010).
Blank lines part the entries; values can stand above or below the compound they belong to.

Tests used:
Assay type in all cases: cell-based
Set-up in all cases: scale not given: the % may be the effect or the level left
[1] = molecular target: Macrophage colony-stimulating factor 1 receptor (Homo sapiens) (UniProt P07333); assay: Inhibition of CSF1-stimulated human FMS autophosphorylation expressed in growth factor dependent mouse FDC-P1 cells assessed as phosphorylated receptor level at 10 uM relative to control by Western blot
Chain of Macrophage colony-stimulating factor 1 receptor (Homo sapiens) (P07333 whole entry): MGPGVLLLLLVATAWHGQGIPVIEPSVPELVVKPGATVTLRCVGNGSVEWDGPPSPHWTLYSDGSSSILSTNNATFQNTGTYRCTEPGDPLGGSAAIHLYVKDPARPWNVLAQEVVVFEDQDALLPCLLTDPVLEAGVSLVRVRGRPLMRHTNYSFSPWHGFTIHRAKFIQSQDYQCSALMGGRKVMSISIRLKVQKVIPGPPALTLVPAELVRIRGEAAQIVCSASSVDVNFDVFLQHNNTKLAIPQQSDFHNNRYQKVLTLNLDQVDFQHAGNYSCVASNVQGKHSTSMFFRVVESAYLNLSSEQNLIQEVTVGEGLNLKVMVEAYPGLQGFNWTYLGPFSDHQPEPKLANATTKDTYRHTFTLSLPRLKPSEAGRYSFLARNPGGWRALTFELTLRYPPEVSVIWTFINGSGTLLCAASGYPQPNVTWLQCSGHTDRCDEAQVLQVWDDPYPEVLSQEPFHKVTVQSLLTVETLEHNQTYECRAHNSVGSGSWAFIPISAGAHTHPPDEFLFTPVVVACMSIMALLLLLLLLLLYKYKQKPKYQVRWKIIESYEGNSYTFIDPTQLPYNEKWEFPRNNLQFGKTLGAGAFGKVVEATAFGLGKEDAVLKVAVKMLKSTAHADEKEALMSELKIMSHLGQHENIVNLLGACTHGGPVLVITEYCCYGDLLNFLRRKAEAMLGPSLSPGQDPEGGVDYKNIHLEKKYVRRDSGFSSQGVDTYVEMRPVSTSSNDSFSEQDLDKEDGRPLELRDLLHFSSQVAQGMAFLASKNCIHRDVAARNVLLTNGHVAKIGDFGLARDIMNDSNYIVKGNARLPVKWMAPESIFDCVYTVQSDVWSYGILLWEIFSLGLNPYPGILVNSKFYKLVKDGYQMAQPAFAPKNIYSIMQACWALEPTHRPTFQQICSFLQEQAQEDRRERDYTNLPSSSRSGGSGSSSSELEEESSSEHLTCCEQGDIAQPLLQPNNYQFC

[2] = molecular target: Macrophage colony-stimulating factor 1 receptor (Homo sapiens) (UniProt P07333); assay: Inhibition of CSF1-stimulated human FMS autophosphorylation expressed in growth factor dependent mouse FDC-P1 cells assessed as phosphorylated receptor level at 3.3 uM relative to control by Western blot
[3] = molecular target: Macrophage colony-stimulating factor 1 receptor (Homo sapiens) (UniProt P07333); assay: Inhibition of CSF1-stimulated human FMS autophosphorylation expressed in growth factor dependent mouse FDC-P1 cells assessed as phosphorylated receptor level at 1.1 uM relative to control by Western blot
[4] = molecular target: Macrophage colony-stimulating factor 1 receptor (Homo sapiens) (UniProt P07333); assay: Inhibition of CSF1-stimulated human FMS autophosphorylation expressed in growth factor dependent mouse FDC-P1 cells assessed as phosphorylated receptor level at 0.33 uM relative to control by Western blot
[5] = molecular target: Macrophage colony-stimulating factor 1 receptor (Homo sapiens) (UniProt P07333); assay: Inhibition of CSF1-stimulated human FMS autophosphorylation expressed in growth factor dependent mouse FDC-P1 cells assessed as phosphorylated receptor level at 0.11 uM relative to control by Western blot
[6] = molecular target: Macrophage colony-stimulating factor 1 receptor (Homo sapiens) (UniProt P07333); assay: Inhibition of CSF1-stimulated human FMS autophosphorylation expressed in growth factor dependent mouse FDC-P1 cells assessed as phosphorylated receptor level at 1 nM relative to control by Western blot
[7] = molecular target: Macrophage colony-stimulating factor 1 receptor (Homo sapiens) (UniProt P07333); assay: Inhibition of CSF1-stimulated human FMS autophosphorylation expressed in growth factor dependent mouse FDC-P1 cells assessed as phosphorylated receptor level at 500 nM relative to control by Western blot
[8] = molecular target: Macrophage colony-stimulating factor 1 receptor (Homo sapiens) (UniProt P07333); assay: Inhibition of CSF1-stimulated human FMS autophosphorylation expressed in growth factor dependent mouse FDC-P1 cells assessed as phosphorylated receptor level at 50 nM relative to control by Western blot
[9] = molecular target: Macrophage colony-stimulating factor 1 receptor (Homo sapiens) (UniProt P07333); assay: Inhibition of CSF1-stimulated human FMS autophosphorylation expressed in growth factor dependent mouse FDC-P1 cells assessed as phosphorylated receptor level at 5 nM relative to control by Western blot
[10] = molecular target: Macrophage colony-stimulating factor 1 receptor (Homo sapiens) (UniProt P07333); assay: Inhibition of CSF1-stimulated human FMS autophosphorylation expressed in growth factor dependent mouse FDC-P1 cells assessed as phosphorylated receptor level at 31 nM relative to control by Western blot

Activity [1]: 106%
Activity [2]: 97%
Activity [3]: 104%
Activity [4]: 109%
Activity [5]: 104%
Structure (SMILES): CN(C)S(=O)(=O)c1ccc2c(c1)/C(=C/c1cc3c([nH]1)CCCC3)C(=O)N2

Structure (SMILES): C[C@]12O[C@H](C[C@]1(O)CO)n1c3ccccc3c3c4c(c5c6ccccc6n2c5c31)CNC4=O
Activity [6]: 85%

Activity [7]: 3%
Activity [8]: 21%
Activity [9]: 110%
Structure (SMILES): CO[C@@H]1[C@H](N(C)C(=O)c2ccccc2)C[C@H]2O[C@]1(C)n1c3ccccc3c3c4c(c5c6ccccc6n2c5c31)C(=O)NC4

Activity [7]: 2%
Activity [6]: 90%
Activity [10]: 37%
Structure (SMILES): CCN(CC)CCNC(=O)c1c(C)[nH]c(/C=C2\C(=O)Nc3ccc(F)cc32)c1C
